Structures are written as SMILES.

The record followed here is patent publication US20230015541A1, “16% Sodium Citrate Solution for Use as an Antimicrobial Catheter Lock Solution” (Becton, Dickinson and Company, priority 2021, published 2023).

The test system of assay [1] is yeast, C. albicans. The assay can be described thus: Growth inhibition timeframe at various concentrations of sodium citrate. The class given is cell-based, Candida albicans. The following applies: through 24 hours, pH 6.4-7.5. As for the experimental part:
FIG. 5 is a table showing growth inhibition timeframe of the fungus Candida albicans exposed to various concentrations of sodium citrate.
(§1) In vitro testing was conducted with various concentrations of sodium citrate on S. aureus (Gram-positive bacteria) (FIG. 3), P. aeruginosa (Gram-negative bacteria) (FIG. 4), and yeast, C. albicans (FIG. 5). Testing was conducted as set forth in ‘Methods for Dilution Antimicrobial Susceptibility Tests for Bacteria That Grow Aerobically,’ 11th Edition, Clinical and Laboratory Standards Institute (2018), ‘Methods for Determining Bactericidal Activity of Antimicrobial Agents' Approved Guideline.’ Vol. 12, No. 9, Clinical and Laboratory Standards Institute (1999), and ‘Development of In Vitro Susceptibility Testing Criteria and Quality Control Parameters; Approved Guideline-Second Edition,’ Vol. 21, No. 7, Clinical and Laboratory Standards Institute (2001). Briefly, trisodium citrate salt was compounded using purified water and the pH was adjusted, if necessary, with hydrochloric acid to provide a composition with a pH between 6.4 and 7.5. […] Due to this, it is expected that growth inhibition and possibly eradication can occur beyond 24 hours.

The subject of assay [2] is P. aeruginosa (Gram-negative bacteria). The assay is described as above. The class given is cell-based, Pseudomonas aeruginosa. The following applies: through 24 hours; for growth of P. aeruginosa: pH 6.4-7.5. The procedure: FIG. 4 is a table showing growth inhibition timeframe of Gram-negative Pseudomonas aeruginosa exposed to various concentrations of sodium citrate.
as §1
Due to this, it is expected that growth inhibition and possibly eradication can occur beyond 24 hours.

In assay [3] the test system is whole human blood. As to the kind of experiment: Anticoagulation effect in vitro as activated clotting time (ACT), Sonoclot analyzer. The class given is cell-based. To be noted: 4% (w/v), versus controls (no solution and saline). The procedure: The anticoagulation effect of a 4% sodium citrate lock solution was measured in vitro as activated clotting time (ACT) using whole human blood over 2 years. The anticoagulation effectiveness of 4% sodium citrate lock solution on whole blood was determined using the Sonoclot® Coagulation & Platelet Function Analyzer (Sienco Inc., Boulder Colo.), which can calculate the onset of clot formation by monitoring mechanical changes that occur in blood samples during hemostasis. The mechanism is a tubular probe that moves up and down within a blood sample. As the sample progresses through various stages of clotting, electronic circuitry (a transducer) detects increasing resistance. This produces a series of electronic signals that are processed by a microcomputer. The output is the total time of clot formation where the blood is more viscous than initially introduced.

Assay [4] concerns S. aureus (Gram-positive bacteria). As to the kind of experiment: Growth inhibition timeframe at various concentrations of sodium citrate. The class given is cell-based, Staphylococcus aureus. To be noted: through 24 hours; for growth of S. aureus: pH 6.4-7.5. As for the experimental part:
FIG. 3 is a table showing growth inhibition timeframe of Gram-positive Staphylococcus aureus exposed to various concentrations of sodium citrate.
as §1

In assay [5] the test system is yeast. The assay can be described thus: MIC determination of sodium citrate by broth microdilution. The following applies: 16% w/v sodium citrate, pH 6.4-7.5; concluded from MICs of FIGS. 2A and 2B. The class given is cell-based. The procedure: (§2) In vitro testing was conducted with sodium citrate on samples of various microorganisms to determine a minimum inhibitory concentration (MIC) of sodium citrate (at pH 6.4-7.5) for those microorganisms. […] Testing was performed as set forth in ‘Methods for Dilution Antimicrobial Susceptibility Tests for Bacteria That Grow Aerobically,’ 11th Edition, Clinical and Laboratory Standards Institute (2018), ‘Methods for Determining Bactericidal Activity of Antimicrobial Agents' Approved Guideline.’ Vol. 12, No. 9, Clinical and Laboratory Standards Institute (1999), and ‘Development of In Vitro Susceptibility Testing Criteria and Quality Control Parameters; Approved Guideline-Second Edition,’ Vol. 21, No. 7, Clinical and Laboratory Standards Institute (2001).
(§3) For MIC determinations, sodium citrate was reconstituted and diluted to various working stock concentrations (8%, 10%, 12%, 14%, 16%, 20%, 24%, and 28% in deionized water and transferred into round-bottom 96-well microdilution plates. Three strains each of Gram-positive bacteria, Gram-negative bacteria, and yeast were obtained from the American Tissue Type Collection (ATCC) or the Centers for Disease Control Antibiotic Resistant (CDC AR) Isolate Bank. Cultures were grown on Trypticase Soy Agar (TSA, for bacteria) or Sabouraud Dextrose Agar (SDA, for yeast) and suspended in Mueller Hinton Broth to a final cell density of approximately 5×10^5 CFU/mL during exposure to sodium citrate. Following incubation at 35±2° C. for 24±2 h (bacteria) or 44±4 h (yeast), microdilution plates were visually examined for the presence or inhibition of growth.
(§4) As will be appreciated, the MIC is shown, thus testing of higher concentrations was deemed unnecessary, because if, for example 4% sodium citrate is the MIC for a given microorganism, then 16% would be at least as effective. Three (3) replicates were run for each bacteria evaluated and four (4) replicates were run for each fungi evaluated, using two (2) different growth media for the fungi. […]
On the technique in general: Broth dilution looks for growth in wells or tubes with falling amounts of substance.

In assay [6] the test system is Gram-negative bacteria. The assay is described as above. The class given is cell-based. To be noted: 16% w/v sodium citrate, pH 6.4-7.5; concluded from MICs of FIGS. 2A and 2B. As for the experimental part: as §2, §3, §4
Assay [7] has as its system Gram-positive bacteria. The assay is described as above. The class given is cell-based. The following applies: 16% w/v sodium citrate, pH 6.4-7.5; concluded from MICs of FIGS. 2A and 2B. As for the experimental part:
as §2, §3, §4

Consider `O=C([O-])CC(O)(CC(=O)[O-])C(=O)[O-].[Na+].[Na+].[Na+]` [sodium citrate, trisodium citrate], for which the “growth of C. albicans” value in assay [1] (2% (w/v)), in assay [1] (4% (w/v)) and in assay [1] (6% (w/v)) was “does not grow” in each case. Further, the “bacteria count of P. aeruginosa” value in assay [2] (10% (w/v)), in assay [2] (12% (w/v)) and in assay [2] (14% (w/v)) was “decrease” in each case. In addition, the “growth of P. aeruginosa” value in assay [2] (10% (w/v)), in assay [2] (12% (w/v)) and in assay [2] (14% (w/v)) was “does not grow” each time. In addition, the “time required for clot formation (activated clotting time)” value in assay [3] is recorded as “longer relative to the controls”. In addition, the “bacteria count of S. aureus” value in assay [4] (6% (w/v)), in assay [4] (8% (w/v)) and in assay [4] (10% (w/v)) was “decrease” in each case. The “growth of S. aureus” value in assay [4] (6% (w/v)), in assay [4] (8% (w/v)) and in assay [4] (10% (w/v)) was “does not grow” each time. Besides, in assay [5], the “growth and proliferation of yeast” value was “will prevent growth and proliferation”. For the same compound, the “growth and proliferation of Gram-negative bacteria” value in assay [6] was “will prevent growth and proliferation”. Further, the “growth and proliferation of Gram-positive bacteria” value in assay [7] is “will prevent growth and proliferation”.
